Counter-ions that a name gives are not always drawn.
What was measured:
[1] = Dynamic Vapour Sorption (DVS); assay type: physicochemical; settings: for DVS total mass uptake: at 95 RH %; for hygroscopicity (assessment from DVS): from total mass uptake at 95 RH %; for DVS Hygroscopicity (%): scale-up synthesis batch
Description: Dynamic Vapour Sorption (DVS): The Dynamic Vapour Sorption studies are performed using a Surface Measurement Systems Ltd. DVS-1 No Video, equipment #2126. The sample is loaded into a balance pan, typically 20-30 mg, and equilibrated at 0% RH. After the material was dried, the RH is increased with 10% per step for 1 hour per increment, ending at 95% RH. After completion of the sorption cycle, the sample was dried using the same method. The software used for data collection is DVSWin v3.01 No Video. Data analysis is performed using DVS Standard Analysis Suite v6.3.0 (Standard).

[2] = hygroscopicity and stability of salt forms (salt screen); assay type: physicochemical; settings: salt form
Description: In an effort to find new salts and polymorphs of ITI-007, an extensive salt screen was undertaken. […] Eventually, a toluenesulfonic acid addition salt (tosylate) was prepared, as described in WO 2009/114181, but no other stable salts were found. Finally, a major salt screen was carried out, wherein the free base compound was studied in different solvent systems and under different conditions, and then systematically screened using a selection of over 100 acids under different conditions and with different solvent, co-solvent and anti-solvent systems, to identify possible salt forms. Following extensive screening and experimentation, the following novel salts were discovered, characterized, and found to be reproducible and stable: oxalate, 4-aminosalicylate, and cyclamate.
(§1) Solubility of free base in various solvents is evaluated, and based on the results of the solubility range, suitable solvents are selected for the salt screen. The salt screen is divided into seven separate screens, using 90 different counter ions, six different solvents, and including four different crystallization methods, slurry experiments, cooling crystallization, evaporation and precipitation experiments. The counterions are selected based upon availability and potential suitability to form pharmaceutically acceptable acid addition salts. They include the class I, II and III acids identified in Stahl P. H., Wermuch C. G. (editors), Handbook of Pharmaceutical Salts, IUPAC (2008).

H1 histaminergic = H1 histaminergic (Homo sapiens, UniProt P35367); settings: cited from earlier work
Sequence of H1 histaminergic (P35367 whole entry): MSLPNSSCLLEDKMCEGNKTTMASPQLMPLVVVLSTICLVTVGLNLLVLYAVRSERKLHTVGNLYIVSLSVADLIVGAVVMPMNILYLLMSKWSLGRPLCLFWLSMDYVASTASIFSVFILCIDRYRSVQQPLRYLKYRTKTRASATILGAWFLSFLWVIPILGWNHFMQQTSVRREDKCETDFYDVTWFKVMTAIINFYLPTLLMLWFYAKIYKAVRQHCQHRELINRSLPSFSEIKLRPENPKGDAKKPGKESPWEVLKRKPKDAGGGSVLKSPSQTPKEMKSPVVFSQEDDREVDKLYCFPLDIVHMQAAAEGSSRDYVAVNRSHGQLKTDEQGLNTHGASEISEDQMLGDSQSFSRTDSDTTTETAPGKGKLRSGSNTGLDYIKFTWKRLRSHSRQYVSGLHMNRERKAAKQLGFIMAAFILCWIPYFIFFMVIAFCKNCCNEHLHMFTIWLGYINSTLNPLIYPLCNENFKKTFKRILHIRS

muscarinic = settings: cited from earlier work
[3] = solubility of free base in water and organic solvents; assay type: physicochemical; settings: free base form; in water and in many organic solvents
Description: as §1

5-HT2C = biological target: T1, 5-HT2C (Homo sapiens, UniProt P28335); settings: cited from earlier work
T1 sequence (P28335 33-458): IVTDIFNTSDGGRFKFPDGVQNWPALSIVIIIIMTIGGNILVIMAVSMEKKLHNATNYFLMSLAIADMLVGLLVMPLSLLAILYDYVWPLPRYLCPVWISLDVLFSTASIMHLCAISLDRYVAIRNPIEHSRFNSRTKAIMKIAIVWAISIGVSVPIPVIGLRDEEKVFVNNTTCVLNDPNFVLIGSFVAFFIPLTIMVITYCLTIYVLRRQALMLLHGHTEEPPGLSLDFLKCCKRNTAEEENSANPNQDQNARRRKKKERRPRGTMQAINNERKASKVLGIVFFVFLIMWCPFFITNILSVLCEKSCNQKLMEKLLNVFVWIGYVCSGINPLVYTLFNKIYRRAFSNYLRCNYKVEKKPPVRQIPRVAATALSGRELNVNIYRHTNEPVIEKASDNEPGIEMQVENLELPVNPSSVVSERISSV

Compound	DVS total mass uptake [1]	hygroscopicity (assessment from DVS) [1]	DVS Hygroscopicity (%) ([1]; listed as FP-212 cyclamate salt)	stability [2]	DVS Hygroscopicity (%) [1]	binding to receptors associated with cognitive and metabolic side effects (H1 histaminergic)	binding to receptors associated with cognitive and metabolic side effects (muscarinic)	solubility [3]	binding to receptors associated with cognitive and metabolic side effects (5-HT2C)
CN1CCN2c3c(cccc31)[C@@H]1CN(CCCC(=O)c3ccc(F)cc3)CC[C@@H]12 [cyclamate salt, 1-(4-fluoro-phenyl)-4-((6bR,10aS)-3-methyl-2,3,6b,9,10,10a-hexahydro-1H,7H-pyrido[3′,4′:4,5]pyrrolo[1,2,3-de]quinoxalin-8-yl)-butan-1-one]	8%	somewhat hygroscopic	8%	stable	–	–	–	–	–
CN1CCN2c3c(cccc31)[C@@H]1CN(CCCC(=O)c3ccc(F)cc3)CC[C@@H]12 [oxalate salt, 1-(4-fluoro-phenyl)-4-((6bR,10aS)-3-methyl-2,3,6b,9,10,10a-hexahydro-1H,7H-pyrido[3′,4′:4,5]pyrrolo[1,2,3-de]quinoxalin-8-yl)-butan-1-one]	5%	moderately hygroscopic	–	stable	5%	–	–	–	–
CN1CCN2c3c(cccc31)[C@@H]1CN(CCCC(=O)c3ccc(F)cc3)CC[C@@H]12 [ITI-007, 1-(4-fluoro-phenyl)-4-((6bR,10aS)-3-methyl-2,3,6b,9,10,10a-hexahydro-1H,7H-pyrido[3′,4′:4,5]pyrrolo[1,2,3-de]quinoxalin-8-yl)-butan-1-one]	–	–	–	–	–	negligible binding	negligible binding	poor solubility	negligible binding
CN1CCN2c3c(cccc31)[C@@H]1CN(CCCC(=O)c3ccc(F)cc3)CC[C@@H]12 [4-aminosalicylate salt, 1-(4-fluoro-phenyl)-4-((6bR,10aS)-3-methyl-2,3,6b,9,10,10a-hexahydro-1H,7H-pyrido[3′,4′:4,5]pyrrolo[1,2,3-de]quinoxalin-8-yl)-butan-1-one]	5%	moderately hygroscopic	–	stable	5%	–	–	–	–
